Consider 1 compound from patent US5380745A, “Medicinal composition” (Meiiji Seika Kaisha, Ltd., priority 1991, dated 1995).

Where two headings read alike, the source gives them in different places.

The nature of data set [1]: Water solubility of PF1022 substance (elution into buffer, HPLC). The class given is physicochemical. The conditions noted are these: aqueous buffer, 40 °C, 50 mg PF1022 substance in 50 ml, read-out: Concentration of PF1022 substance. How it is done:
The compositions of Examples 1 to 9 and PF1022 substance alone, employed as a control, were tested. Each composition was weighed in a 100 ml-Erlenmeyer flask, in an amount corresponding to 50 mg of PF1022 substance and 50 ml of McDougall buffer or Clark Lubs buffer was added thereto. McDougall buffer is prepared by dissolving 7.43 g of sodium hydrogencarbonate, 7.0 g of disodium phosphate 12-hydrate, 0.34 g of sodium chloride, 0.43 g of potassium chloride, 0.10 g of magnesium chloride hexahydrate and 0.05 g of calcium chloride in 1,000 ml of water and saturating the mixture with carbon dioxide gas (pH 6.8). Clark Lubs buffer is prepared by adding 50 ml of 0.2N potassium chloride and 10.6 ml of 0.2N hydrochloric acid to 139.4 ml of water (pH 2.0). The mixture was shaken in a thermostat at 40 °±0.5° C. at a vibrational amplitude of 4 cm at 60 rpm to figure eight. Sampling was made with the lapse of time and the amount of the eluate was determined by high performance liquid chromatography.

The test system of data set [2] is cattle nematodes in the digestive tract. The experiment in a line: Anthelmintic effect on cattle nematodes in the digestive tract (EPG). It counts as in vivo. The conditions noted are these: oral 25 mg PF1022 substance/kg/day for two days. How it is done: (§1) The medicinal composition of the present invention was administered to animals in an amount corresponding to a definite amount of PF1022 substance. The whole feces was collected everyday and the number of parasitic eggs per gram of the feces (EPG) were counted. Two weeks after the initiation of the administration, each animal was dissected and the number of parasites remaining in the intestine were counted.
(§2) The medicinal composition obtained in Example 1 was orally administered in a dose as corresponding to 25 mg of PF1022 substance/kg/day for two days. As a control, PF1022 substance alone was administered in the same manner as those described above. […] Each of the medicinal composition as shown in Table 4 was orally administered in a dose corresponding to 5 mg of PF1022 substance/kg/day for two days. As a control, PF1022 substance alone was orally administered in a dose of 25 mg/kg/day for two days.

In data set [3] the test system is sheep nematodes in the digestive tract. The experiment in a line: Anthelmintic effect on sheep nematodes in the digestive tract (EPG). It counts as in vivo. Conditions: PF1022 substance alone oral 25 mg/kg/day for two days. How it is done: as §1, §2
In data set [4] the test system is parasites in digestive tract of unigastric animals. Conditions: used alone; unigastric animals such as fowl, dog, cat and swine; cited from earlier work.
For the next data set, the system named is parasites. The conditions noted are these: rumenal animals such as cattle, sheep and goat; cited from earlier work.
The conditions of data set [5]: PF1022 substance, in words, cited from earlier work.

As for `CC(C)CC1C(=O)OC(Cc2ccccc2)C(=O)N(C)C(CC(C)C)C(=O)OC(C)C(=O)N(C)C(CC(C)C)C(=O)OC(Cc2ccccc2)C(=O)N(C)C(CC(C)C)C(=O)OC(C)C(=O)N1C` (stereo not shown) [PF1022 substance], the solubility at 1 h in data set [1] (Clark Lubs buffer (pH 2.0)) and in data set [1] (McDougall buffer (pH 6.8)) was below 1 µg/mL in each case. The solubility at 24 h in data set [1] (Clark Lubs buffer (pH 2.0)) and in data set [1] (McDougall buffer (pH 6.8)) was below 1 µg/mL throughout. For the same compound, the “Number of eggs per gram of feces (EPG)” value in data set [2] (day 0) is given as 112 EPG; in data set [2] (day 1), 80 EPG; in data set [2] (day 3) it was 34 EPG; in data set [2] (day 5), 41 EPG; in data set [2] (day 7), 49 EPG; in data set [2] (day 10), 36 EPG. Besides, the “Number of eggs per gram of feces (EPG)” value in data set [2] (day 14) is listed as 40 EPG; in data set [3] (day 0), 2997 EPG; in data set [3] (day 1) it was 2313 EPG; in data set [3] (day 3) it was 13 EPG; in data set [3] (day 5), 9 EPG; in data set [3] (day 7) it was 32 EPG. The “Number of eggs per gram of feces (EPG)” value in data set [3] (day 10) came to 12 EPG; in data set [3] (day 14) it was 8 EPG. Besides, in data set [4], the anthelmintic effect result is “particularly marked anthelmintic effect”. Further, the “dosage required relative to unigastric animals” value with parasites is recorded as 5 to 10 times. The solubility in water entry in data set [5] is “extremely poor solubility in water”; in data set [5] (listed as PF1022 Substance) it was “practically insoluble or hardly dispersible in water”.
